Patent US20240239818A1, “COMPOUNDS AND COMPOSITIONS COMPRISING FLUOROPHORES FOR USE IN VISUALIZATION AND PURIFICATION OR MANIPULATION” (priority 2022, published 2024)
Entries after “also recorded” stand apart in the source; their conditions may differ.

Columns and labels:
Type in all cases: cell-based
[1] = target: T1, msGFP-HaloTag® fusion localized to the mitochondrial outer membrane (Rhodococcus rhodochrous, UniProt P0A3G2, A155T/A167V/A172T/A224E/C128F/C176G/D78G/E160K/E257K/H272N/K175M/K195N/L47V/L88M/N227D/S58T/T264A/Y273L/Y87F)
T1 construct: expressed in transfected cells; host or cells: HEK293T, calcium phosphate transfection
T1 sequence (P0A3G2 other isoform, or with tags, fused parts or gaps with the stated changes): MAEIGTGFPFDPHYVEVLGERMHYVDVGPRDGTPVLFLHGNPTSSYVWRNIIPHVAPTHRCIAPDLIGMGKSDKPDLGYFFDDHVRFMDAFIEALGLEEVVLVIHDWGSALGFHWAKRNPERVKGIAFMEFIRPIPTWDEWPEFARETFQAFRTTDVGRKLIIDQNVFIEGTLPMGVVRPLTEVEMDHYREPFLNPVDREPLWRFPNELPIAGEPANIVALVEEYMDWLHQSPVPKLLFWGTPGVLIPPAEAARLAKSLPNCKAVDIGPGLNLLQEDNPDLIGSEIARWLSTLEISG
Procedure: HEK293T labeling and fluorescence microscopy. […] For pulse-chase experiments, HEK293T cells were incubated with biotin-HaloTag® ligand (6; #G8281, Promega) at either 100 nM or 10 μM for 1 hour at 37° C. and chased with 100 nM of JANELIA FLUOR® (JF)549-HaloTag® ligand (2HTL). […] For imaging, the coverslips containing HEK293T cells were fixed with 4% paraformaldehyde in PBS at 37° C. for 10 min, washed with PBS (3×), and mounted on glass slides with ProLong Glass Antifade Mountant with NucBlue™ Stain (ThermoFisher; P36981). These cells were imaged using a Zeiss LSM 880 with Airyscan and a plan-apochromatic 63×/1.40 oil objective in Fast Airyscan mode. The same image acquisition settings were used for each trial and condition. Images were then processed with automatic Airyscan deconvolution settings.

[2] = target: T2, msGFP-HaloTag® fusion protein (mitochondria) from HEK293T cells (Rhodococcus rhodochrous, UniProt P0A3G2, A155T/A167V/A172T/A224E/C128F/C176G/D78G/E160K/E257K/H272N/K175M/K195N/L47V/L88M/N227D/S58T/T264A/Y273L/Y87F); assay: Affinity capture (streptavidin microbeads) and in-gel fluorescence; conditions: streptavidin beads
T2 construct: and (4) HaloTag®; expressed in transfected cells; host or cells: HEK293T, calcium phosphate transfection
T2 sequence (P0A3G2 other isoform, or with tags, fused parts or gaps with the stated changes): as above
Procedure: Affinity capture and in-gel fluorescence experiments. Affinity capture pulldown isolation experiments of biotin-labeled HaloTag® fusion proteins were performed on ice-cold isolation buffer (IB) consisting of KCl (0.18 M), ethylene glycol-bis(β-aminoethyl ether)-N,N,N′,N′-tetraacetic acid (EGTA; 1 mM), 3-(N-morpholino)propanesulfonic acid (MOPS; 5 mM); the pH was adjusted to pH=7.35 using KOH(aq).^51 HEK293T cells were scraped with 500 μL IB and homogenized using 12 strokes with a 27G syringe. The resulting homogenate was spun at 4° C. at 1000 g for 3 min to pellet large cellular debris. 50 μL of streptavidin-coated microbeads (Miltenyi, 130-048-101) were added to the supernatant and incubated for 30 min at 4° C. with slow rotation. LS columns (Miltenyi, 130-042-401) were prepared by first washing with 3 mL IB consisting of 2.5% bovine serum albumin (BSA; Jackson ImmunoResearch, 001-000-162) and then with plain IB (3×). Prior to supernatant-microbead mixture being loaded onto LS columns, 5% volume was taken for downstream total fraction calculations (i.e., the “total/20” sample). Columns and samples were kept at 4° C. (cold room) while samples were loaded onto columns and washed with IB (3×); this fraction was collected as designated as “wash”. After the washing step, the column was removed from the QuadroMACs magnet holder (Miltenyi, 130-092-857) and eluted with gentle plunge action into an Eppendorf tube; this was labeled as “eluate”. From here, there were three fractions for each condition: total/20, wash (unbound), and eluate (bound). Since mitochondria were being isolated, these samples were spun at 4° C. and 20,000 g to pellet mitochondria. These samples were then solubilized using the lysis buffer containing 1×PBS, 2% SDS, 1% Triton x-100, 10 mM EDTA, and protease inhibitors (2 mM PMSF, aprotinin, leupeptin, and pepstatin A). Samples were then incubated at 72° C. for 3-4 min after the addition of sample buffer (SB) (DTT, glycerol, and bromophenol blue). For protein detection, 10-20 μL of the sample was subjected to sodium dodecyl sulfate-polyacrylamide gel electrophoresis (SDS-PAGE), using 13% gels. The affinity capture pulldown efficiency was monitored using in-gel fluorescence. The msGFP signal from HaloTag®-TEV-4×GS-msGFP-mito after cell lysis and SDS-PAGE was analyzed, in-gel, using a BioRad Chemidoc MP imager (BioRad) through GFP fluorescence excitation and emission filters. Data were quantified by densitometry using Fiji.^52 Capture efficiency was calculated using equation 3:
[formula] • where Ieluate is the in-gel fluorescence intensity of the bead-bound fraction and Itotal/20 is the in-gel fluorescence intensity of the 5% of crude sample reserved for concentration control (i.e., the “total/20” sample).
Evaluation of biotin-HaloTag® ligand. A live cell permeable biotin reagent was saught for affinity pulldown of HaloTag® fusion proteins, given the broad utility of biotin conjugates in biochemistry and cell biology. To evaluate the performance of biotin-containing HaloTag® ligand, an assay was developed (FIG. 3A) where the HaloTag® is expressed as a fusion with monomeric superfolder green fluorescent protein (msGFP); the construct also included an OMP25 sequence to localize the fusion protein to the outer mitochondrial membrane, allowing straightforward imaging and affinity capture experiments.^28-29 HEK293T cells expressing this fusion protein were incubated with biotin-containing HaloTag® ligands followed by washing and cell lysis. The crude supernatant was incubated with streptavidin-coated magnetic microbeads, applied to a magnetic column, and washed. The magnet was removed, and the bead-bound mitochondria were eluted, lysed, and the resulting solution was analyzed by sodium dodecyl sulfate-polyacrylamide gel electrophoresis (SDS-PAGE) and in-gel fluorescence. To minimize dilution of the sample only the initial bead-bound fraction was collected, leaving some material on the column. […]

BRD4 [3] = target: T3, BRD4 (Homo sapiens, UniProt O60885); assay: BRD4 recruitment to coilin-HaloTag® in live N2a cells (no wash lattice lightsheet microscopy); conditions: 100 nM
T3 construct: expressed in transfected cells; host or cells: N2a cells, transient transfection
Procedure: (§1) Live cell protein imaging and manipulation using JQ1-rhodamine-HaloTag® ligand. The ability of JQ1 ligands to recruit BET family protein BRD4 to HaloTag® fusion proteins at distinct genomic regions in N2a cells was then tested (FIG. 13A). N2a cells are neural progenitor cells that are frequently utilized to study neuronal differentiation and axonal growth. […] N2a cells were transiently transfected with plasmids encoding the HaloTag® protein fused to the following nuclear proteins: (1) constitutive heterochromatin marker heterochromatin protein 1 (HP1); (2) Cajal body component coilin; and (3) centromere localized histone H3 variant centromere protein A (CENP-A). These three proteins have a very distinct distribution in the nucleus than BRD4 which generally has an euchromatic distribution. Localization of BRD4 to specific gene loci can induce gene expression. […]
(§2) Initially, a side-by-side comparison of JF646 based 17 and JF635 based 18 was performed for recruiting BRD4 to coilin-HaloTag® under a “no wash” lattice lightsheet fluorescence microscopy setup. […] Advantageously, 18 also has lower absorptivity and negligible fluorescence quantum yield before HaloTag® conjugation. “No wash” imaging was performed and the fluorescence from JF635 and sfGFP were monitored. […] The […] HP1-HaloTag® labeled with either JF635-HaloTag® ligand (5HTL) or the JQ1 analog 18 were quantified (FIG. 13J).

BRD4 [4] = target: T3, BRD4; assay: BRD4 recruitment to HP1-HaloTag® in live N2a cells (no wash lattice lightsheet microscopy); conditions: 100 nM
Procedure: as §1, §2

Row | SMILES | labeling of HaloTag®-msGFP fusion by pulse-chase (JF549/msGFP ratio after 2HTL chase) ([1]; HEK293T, 10 μM (μM concentrations), 1 h pulse) | labeling of HaloTag®-msGFP fusion by pulse-chase ([1]; HEK293T, nanomolar concentration (100 nM)) | concentration required to achieve cellular labeling ([1]; live cells) | affinity capture (protein bound to streptavidin) [2] | BRD4 recruitment to coilin-HaloTag® (BRD4 [3]) | BRD4 localization to HP1-HaloTag® (BRD4 [4])
1 | O=C(CCCC[C@@H]1SC[C@@H]2NC(=O)N[C@@H]21)NCCOCCOCCCCCCCl [compound 6, biotin-HaloTag® ligand] | substantially reduced JF549/msGFP ratio; also recorded: labels the HaloTag®-msGFP fusion in living cells; also recorded: substantially labeled the HaloTag® protein fusion | poor labeling | 10 µM | prevents purification of HaloTag®-expressing mitochondria; also recorded: no appreciable affinity capture |  | 
2 | Cc1sc2c(c1C)C(c1ccc(Cl)cc1)=N[C@H](CC(=O)NCCCCOCCOCCNC(=O)C1(F)C[N+](=C3C=CC4=C(c5cc(C(=O)NCCOCCOCCCCCCCl)ccc5C(=O)[O-])c5ccc(N6CC(F)C6)cc5[Si](C)(C)C4=C3)C1)c1nnc(C)n1-2 (stereo partly drawn) [compound 19, (−)-JQ1-JF635-HaloTag® ligand] |  |  |  |  | did not result in BRD4 localization | did not result in BRD4 localization
